{
  "source": "patent US20230190866A1",
  "about": "“PEPTIDE FOR THE TREATMENT OF CYTOKINE STORM SYNDROME” (priority 2020, published 2023)",
  "key": {"[1]": {"settings": "patients, pharmaceutical composition", "description": "The peptide identified as SEQ ID NO: 1 is obtained by chemical synthesis. Through experiments such as those described in the present invention, those immunological mechanisms induced by the peptide that contribute in the control of hyperinflammation can be evaluated."}, "[2]": {"test_system": "acute respiratory distress syndrome in patients with Covid-19", "settings": "ten treated Covid-19 patients"}},
  "note": "Ends that are not written are not given here.",
  "data": [
    {"sequence": "SIDLKDKYKNIGAKLVQLVANNTNEEA [peptide identified as SEQ ID NO: 1]", "values": [
      {"measurement": "serious adverse events", "setting": "[1]", "result": "No serious adverse events were identified"},
      {"measurement": "tolerability", "setting": "[1]", "result": "well tolerated"},
      {"measurement": "symptoms of immunosuppression", "setting": "[2]", "result": "did not present any symptoms of immunosuppression"}
    ]}
  ]
}
